Measured values published in PubChem BioAssay (NCI).
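Five concentrations, 48 hours, 96-well plates. Definition used: TGI = concentration required for complete inhibition of growth.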

Legend:
Assay in all cases: NCI anticancer screen, dose series, 48 h
EKVX NSCLC = system: EKVX NSCLC
A498 renal = system: A498 renal
SK-MEL-28 melanoma = system: SK-MEL-28 melanoma
HCC-2998 colon = system: HCC-2998 colon
HCT-116 colon = system: HCT-116 colon
COLO 205 colon = system: COLO 205 colon
UACC-62 melanoma = system: UACC-62 melanoma
ACHN renal = system: ACHN renal
HL-60(TB) leukemia = system: HL-60(TB) leukemia
SF-539 CNS = system: SF-539 CNS
SNB-19 CNS = system: SNB-19 CNS
PC-3 prostate = system: PC-3 prostate
RXF 393 renal = system: RXF 393 renal
MALME-3M melanoma = system: MALME-3M melanoma
NCI-H226 lung = system: NCI-H226 lung
A549 NSCLC = system: A549 NSCLC
MDA-MB-435 = system: MDA-MB-435
UO-31 renal = system: UO-31 renal
SW-620 colon = system: SW-620 colon
HOP-92 NSCLC = system: HOP-92 NSCLC
M14 melanoma = system: M14 melanoma
HS 578T breast = system: HS 578T breast
SF-295 CNS = system: SF-295 CNS
IGROV1 ovarian = system: IGROV1 ovarian
SK-OV-3 ovarian = system: SK-OV-3 ovarian
OVCAR-3 ovarian = system: OVCAR-3 ovarian
NCI/ADR-RES ovarian = system: NCI/ADR-RES ovarian
HT29 colon = system: HT29 colon
K-562 leukemia = system: K-562 leukemia
UACC-257 melanoma = system: UACC-257 melanoma
OVCAR-8 ovarian = system: OVCAR-8 ovarian
786-0 renal = system: 786-0 renal
SNB-75 CNS = system: SNB-75 CNS
OVCAR-4 ovarian = system: OVCAR-4 ovarian
SF-268 CNS = system: SF-268 CNS
CAKI-1 renal = system: CAKI-1 renal
HCT-15 colon = system: HCT-15 colon
HOP-62 NSCLC = system: HOP-62 NSCLC
RPMI-8226 leukemia = system: RPMI-8226 leukemia
NCI-H460 lung = system: NCI-H460 lung
SN12C renal = system: SN12C renal
CCRF-CEM leukemia = system: CCRF-CEM leukemia
TK-10 renal = system: TK-10 renal
T-47D breast = system: T-47D breast
NCI-H522 lung = system: NCI-H522 lung
DU-145 prostate = system: DU-145 prostate
BT-549 breast = system: BT-549 breast
OVCAR-5 ovarian = system: OVCAR-5 ovarian
U251 CNS = system: U251 CNS
MCF7 breast = system: MCF7 breast
KM12 colon = system: KM12 colon
NCI-H23 lung = system: NCI-H23 lung
LOX IMVI melanoma = system: LOX IMVI melanoma
SR leukemia = system: SR leukemia
SK-MEL-5 melanoma = system: SK-MEL-5 melanoma
MOLT-4 leukemia = system: MOLT-4 leukemia
MDA-N = system: MDA-N
MDA-MB-231 breast = system: MDA-MB-231 breast
SK-MEL-2 melanoma = system: SK-MEL-2 melanoma

For `Cc1cc(S(=O)(=O)NC2=NC(c3ccccc3)c3cc(Cl)ccc3N2)c(S)cc1Cl` (stereo unspecified), the TGI (EKVX NSCLC) was > 100 µM, the TGI (A498 renal) was > 100 µM and the TGI (SK-MEL-28 melanoma) was > 100 µM. For the same molecule, the TGI (HCC-2998 colon) was > 100 µM, the TGI (HCT-116 colon) was > 100 µM and the TGI (COLO 205 colon) was > 100 µM. For the same molecule, the TGI (UACC-62 melanoma) was > 100 µM, the TGI (ACHN renal) was > 100 µM and the TGI (HL-60(TB) leukemia) was > 100 µM. For the same molecule, the TGI (SF-539 CNS) was > 100 µM, the TGI (SNB-19 CNS) was > 100 µM and the TGI (PC-3 prostate) was > 100 µM. For the same molecule, the TGI (RXF 393 renal) was > 100 µM, the TGI (MALME-3M melanoma) was > 100 µM and the TGI (NCI-H226 lung) was > 100 µM. For the same molecule, the TGI (A549 NSCLC) was > 100 µM, the TGI (MDA-MB-435) was > 100 µM and the TGI (UO-31 renal) was 83.7 µM. The TGI (SW-620 colon) was > 100 µM, the TGI (HOP-92 NSCLC) was > 100 µM and the TGI (M14 melanoma) was > 100 µM. The TGI (HS 578T breast) was > 100 µM, the TGI (SF-295 CNS) was > 100 µM and the TGI (IGROV1 ovarian) was > 100 µM. The TGI (SK-OV-3 ovarian) was > 100 µM, the TGI (OVCAR-3 ovarian) was > 100 µM and the TGI (NCI/ADR-RES ovarian) was > 100 µM. The TGI (HT29 colon) was > 100 µM, the TGI (K-562 leukemia) was > 100 µM and the TGI (UACC-257 melanoma) was > 100 µM. The TGI (OVCAR-8 ovarian) was > 100 µM, the TGI (786-0 renal) was > 100 µM and the TGI (SNB-75 CNS) was > 100 µM. For the same molecule, the TGI (OVCAR-4 ovarian) was > 100 µM, the TGI (SF-268 CNS) was > 100 µM and the TGI (CAKI-1 renal) was > 100 µM. The TGI (HCT-15 colon) was > 100 µM, the TGI (HOP-62 NSCLC) was > 100 µM and the TGI (RPMI-8226 leukemia) was > 100 µM. For the same molecule, the TGI (NCI-H460 lung) was > 100 µM, the TGI (SN12C renal) was > 100 µM and the TGI (CCRF-CEM leukemia) was > 100 µM. The TGI (TK-10 renal) was > 100 µM, the TGI (T-47D breast) was > 100 µM and the TGI (NCI-H522 lung) was > 100 µM. For the same molecule, the TGI (DU-145 prostate) was > 100 µM, the TGI (BT-549 breast) was > 100 µM and the TGI (OVCAR-5 ovarian) was > 100 µM. The TGI (U251 CNS) was > 100 µM, the TGI (MCF7 breast) was > 100 µM and the TGI (KM12 colon) was > 100 µM. For the same molecule, the TGI (NCI-H23 lung) was > 100 µM, the TGI (LOX IMVI melanoma) was > 100 µM and the TGI (SR leukemia) was > 100 µM. The TGI (SK-MEL-5 melanoma) was > 100 µM, the TGI (MOLT-4 leukemia) was > 100 µM and the TGI (MDA-N) was > 100 µM. For the same molecule, the TGI (MDA-MB-231 breast) was > 100 µM.

`CN(C)CC1CCC/C(=C\c2ccc(OC(=O)/C=C/c3ccccc3)cc2)C1=O` (stereo unspecified) showed a TGI (EKVX NSCLC) of 4.89 µM, a TGI (A498 renal) of 23.2 µM and a TGI (SK-MEL-28 melanoma) of 7.49 µM. The TGI (HCC-2998 colon) was > 28.1 µM, the TGI (HCT-116 colon) was 2.8 µM and the TGI (COLO 205 colon) was 3.95 µM. The TGI (UACC-62 melanoma) was 15.8 µM, the TGI (ACHN renal) was 6.62 µM and the TGI (HL-60(TB) leukemia) was > 100 µM. It also gave a TGI (SF-539 CNS) of 3.76 µM, a TGI (SNB-19 CNS) of 20.7 µM and a TGI (PC-3 prostate) of 19.5 µM. For the same molecule, the TGI (RXF 393 renal) was 3.71 µM, the TGI (MALME-3M melanoma) was 5.02 µM and the TGI (NCI-H226 lung) was 9.54 µM. The TGI (A549 NSCLC) was 8.4 µM, the TGI (MDA-MB-435) was 7.37 µM and the TGI (UO-31 renal) was 3.66 µM. The TGI (SW-620 colon) was 4.94 µM, the TGI (HOP-92 NSCLC) was 4.65 µM and the TGI (M14 melanoma) was 5.35 µM. The TGI (HS 578T breast) was 13.1 µM, the TGI (SF-295 CNS) was 13.7 µM and the TGI (IGROV1 ovarian) was 14 µM. For the same molecule, the TGI (SK-OV-3 ovarian) was > 50.9 µM, the TGI (OVCAR-3 ovarian) was 3.63 µM and the TGI (NCI/ADR-RES ovarian) was 5.12 µM. The TGI (HT29 colon) was 3.75 µM, the TGI (K-562 leukemia) was > 42.6 µM and the TGI (UACC-257 melanoma) was 21.2 µM. It also gave a TGI (OVCAR-8 ovarian) of 3.9 µM, a TGI (786-0 renal) of 2.06 µM and a TGI (SK-MEL-2 melanoma) of 7.79 µM. The TGI (SNB-75 CNS) was 17 µM, the TGI (OVCAR-4 ovarian) was 9.44 µM and the TGI (SF-268 CNS) was 8.67 µM. For the same molecule, the TGI (CAKI-1 renal) was 3.38 µM, the TGI (HCT-15 colon) was 3.14 µM and the TGI (HOP-62 NSCLC) was 10.6 µM. It also gave a TGI (RPMI-8226 leukemia) of 6.88 µM, a TGI (NCI-H460 lung) of 21.9 µM and a TGI (SN12C renal) of 4.43 µM. The TGI (CCRF-CEM leukemia) was 0.808 µM, the TGI (TK-10 renal) was 3.76 µM and the TGI (T-47D breast) was 2.58 µM. The TGI (DU-145 prostate) was 7.11 µM, the TGI (BT-549 breast) was 4.47 µM and the TGI (OVCAR-5 ovarian) was 7.24 µM. It also gave a TGI (U251 CNS) of 3.84 µM, a TGI (MCF7 breast) of 1.93 µM and a TGI (KM12 colon) of 3.44 µM. The TGI (NCI-H23 lung) was 4.04 µM, the TGI (LOX IMVI melanoma) was 1.7 µM and the TGI (SR leukemia) was > 100 µM. For the same molecule, the TGI (SK-MEL-5 melanoma) was 12.9 µM, the TGI (MOLT-4 leukemia) was > 37.1 µM and the TGI (MDA-N) was 6.28 µM. For the same molecule, the TGI (MDA-MB-231 breast) was 8.2 µM.
